These results are taken from patent US8088806B2 (Achillion Pharmaceuticals, Inc., priority 2005, dated 2012).

Structures are written as SMILES.

The test system of the experiment is HCV replicon. Nature of the experiment: Replicon based assay of HCV replication inhibition (NPT ELISA). It is filed as cell-based, Hepatitis C virus. The following applies: Hepatitis C virus, Huh-7, 72 h, Table III; Huh-7 HCV replicon-containing cells, three days; read-out: Activity. In a few lines:
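Huh-7 cells carrying a bicistronic HCV replicon (neo, EMCV-IRES-driven NS3–NS5B) treated overnight after seeding with usually 6 concentrations, 10 to 0.03 micromolar, for three days at 37° C without G418. Replication read as NPT level by captured ELISA; matched-DMSO wells and interferon alpha as controls.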
Turning to `CCCCCCCCOc1ccc(Nc2nc(-c3ccc(OCC(=O)O)cc3)c(C)s2)cc1C(F)(F)F` [compound 586, 2-(4-(2-(3-(trifluoromethyl)-4-(octyloxy)phenylamino)-5-methylthiazol-4-yl)phenoxy)acetic acid], the EC50 was < 1000 nM.
For the molecule `CCCCCCCCOc1ccc(Nc2nc(-c3ccccn3)cs2)cc1C(F)(F)F` [compound 587, N-(3-(trifluoromethyl)-4-(octyloxy)phenyl)-4-(pyridin-2-yl)thiazol-2-amine], the EC50 is < 1000 nM.
`CCCCCCCCOc1ccc(Nc2nc(-c3ccc(-c4ccccn4)s3)cs2)cc1C(F)(F)F` [compound 588, N-(3-(trifluoromethyl)-4-(octyloxy)phenyl)-4-(5-(pyridin-2-yl)thiophen-2-yl)thiazol-2-amine]: the EC50 is < 1000 nM.
As to `CCCCCCCCOc1ccc(Nc2nc(-c3cc4ccccc4o3)cs2)cc1C(F)(F)F` [compound 589, 4-(benzofuran-2-yl)-N-(3-(trifluoromethyl)-4-(octyloxy)phenyl)thiazol-2-amine], the EC50 is < 1000 nM.
Then `CCCCCCCCOc1ccc(Nc2nc(-c3sc(-c4cnccn4)nc3C)cs2)cc1C(F)(F)F` [compound 590, N-(3-(trifluoromethyl)-4-(octyloxy)phenyl)-4-(4-methyl-2-(pyrazin-2-yl)thiazol-5-yl)thiazol-2-amine], with < 1000 nM; and `CCCCCCCCOc1ccc(Nc2nc(-c3ccc(Cl)cc3)cs2)cc1C(F)(F)F` [compound 591, 4-(4-chlorophenyl)-N-(3-(trifluoromethyl)-4-(octyloxy)phenyl)thiazol-2-amine], with < 1000 nM.
In the case of `CCCCCOc1ccc(Nc2nc3c(s2)CCc2ccncc2-3)cc1C(F)(F)F` [compound 592, N-(3-(trifluoromethyl)-4-(pentyloxy)phenyl)-4,5-dihydrothiazolo[5,4-h]isoquinolin-2-amine], the EC50 is < 1000 nM.
For `CCCCCCCCOc1ccc(Nc2nc3c(s2)CCc2ccncc2-3)cc1` [compound 593, 4,5-dihydro-N-(4-(octyloxy)phenyl)thiazolo[5,4-h]isoquinolin-2-amine], the EC50 was < 1000 nM.
Then `CCCCCOc1ccc(Nc2nc3c(s2)CCc2ncccc2-3)cc1C(F)(F)F` [compound 594], with < 1000 nM; and `CCCCCCCCOc1ccc(Nc2nc3c(s2)CCc2ncccc2-3)cc1` [compound 595, 4,5-dihydro-N-(4-(octyloxy)phenyl)thiazolo[4,5-f]quinolin-2-amine], with 1000 to 10000 nM.
To `CCCCCCCCOc1ccc(Nc2nc(-c3cnccn3)cs2)cc1C(F)(F)F` [compound 596, N-(3-(trifluoromethyl)-4-(octyloxy)phenyl)-4-(pyrazin-2-yl)thiazol-2-amine] belongs < 1000 nM; to `CCCC(CCC)Oc1ccc(Nc2nc(-c3cnccn3)cs2)cc1C(F)(F)F` [compound 597, N-(3-(trifluoromethyl)-4-(heptan-4-yloxy)phenyl)-4-(pyrazin-2-yl)thiazol-2-amine], < 1000 nM; to `CCCCCCCCOc1ccc(Nc2nc(-c3cnccn3)cs2)cc1` [compound 598, N-(4-(octyloxy)phenyl)-4-(pyrazin-2-yl)thiazol-2-amine], < 1000 nM.
With `CCCCCOc1ccc(Nc2nc(/C=C/c3ccc(F)c(F)c3)cs2)cc1C(F)(F)F` [compound 599, 4-(3,4-difluorostyryl)-N-(3-(trifluoromethyl)-4-(pentyloxy)phenyl)thiazol-2-amine], the EC50 was < 1000 nM.
Consider `CCCCCOc1ccc(Nc2nc(/C=C/c3ccc(OC)cc3)cs2)cc1C(F)(F)F` [compound 600, 4-(4-methoxystyryl)-N-(3-(trifluoromethyl)-4-(pentyloxy)phenyl)thiazol-2-amine], for which the EC50 was < 1000 nM.
`CCCCCOc1ccc(Nc2nc(/C=C/c3ccc(Cl)cc3)cs2)cc1C(F)(F)F` [compound 601, 4-(4-chlorostyryl)-N-(3-(trifluoromethyl)-4-(pentyloxy)phenyl)thiazol-2-amine]: the EC50 was < 1000 nM.
Take `CCCCCCCOc1ccc(C(=O)Nc2nc(-c3cccnc3)cs2)cc1` [compound 602, 4-(heptyloxy)-N-(4-(pyridin-3-yl)thiazol-2-yl)benzamide]: the EC50 was > 10000 nM.
With `CCCCCOc1ccc(Nc2nc(-c3cncc(C(=O)OCC)c3)cs2)cc1C(F)(F)F` [compound 603, ethyl 5-(2-(3-(trifluoromethyl)-4-(pentyloxy)phenylamino)thiazol-4-yl)pyridine-3-carboxylate], the EC50 fell in the range of 1000 to 10000 nM.
As for `CCCCCCCCOc1ccc(Nc2nccs2)cc1C(F)(F)F` [compound 605, N-(3-(trifluoromethyl)-4-(octyloxy)phenyl)thiazol-2-amine], the EC50 is < 1000 nM.
With `FC(F)(F)c1cc(Nc2nc(-c3cnccn3)cs2)ccc1OC1CCCC1` [compound 606, N-(4-(cyclopentyloxy)-3-(trifluoromethyl)phenyl)-4-(pyrazin-2-yl)thiazol-2-amine], the EC50 is < 1000 nM.
On to `CCCCCOc1ccc(Nc2nc(Cc3ccc(F)c(F)c3)cs2)cc1C(F)(F)F` [compound 607, 4-(3,4-difluorobenzyl)-N-(3-(trifluoromethyl)-4-(pentyloxy)phenyl)thiazol-2-amine], for which the EC50 fell in the range of 1000 to 10000 nM.
Turning to `CCCCCCCCOc1ccc(Nc2nc(Cc3ccc(F)c(F)c3)cs2)cc1` [compound 608, 4-(3,4-difluorobenzyl)-N-(4-(octyloxy)phenyl)thiazol-2-amine], the EC50 was > 10000 nM.
To `CCCCCCCCOc1ccc(Nc2nc(Cc3ccc(F)c(F)c3)cs2)cc1C(F)(F)F` [compound 609, 4-(3,4-difluorobenzyl)-N-(3-(trifluoromethyl)-4-(octyloxy)phenyl)thiazol-2-amine] belongs 1000 to 10000 nM; to `CCCCCOc1ccc(Nc2nc(Cc3ccc(F)c(F)c3)cs2)cc1F` [compound 610, 4-(3,4-difluorobenzyl)-N-(3-fluoro-4-(pentyloxy)phenyl)thiazol-2-amine], > 10000 nM; to `CCCCCN(C)c1ccc(Nc2nc(Cc3ccc(F)c(F)c3)cs2)cc1C(F)(F)F` [compound 611, N^4-(4-(3,4-difluorobenzyl)thiazol-2-yl)-2-(trifluoromethyl)-N^1-methyl-N^1-pentylbenzene-1,4-diamine], > 10000 nM.
Turning to `CCCCCCCCN(C)c1ccc(Nc2nc(Cc3ccc(F)c(F)c3)cs2)cc1` [compound 612, N^1-(4-(3,4-difluorobenzyl)thiazol-2-yl)-N^4-methyl-N^4-octylbenzene-1,4-diamine], the EC50 was > 10000 nM.
Regarding `CCCCCCCCOc1ccc(Nc2nc(-c3ccc(C#N)nc3)cs2)cc1C(F)(F)F` [compound 613, 5-(2-(3-(trifluoromethyl)-4-(octyloxy)phenylamino)thiazol-4-yl)pyridine-2-carbonitrile], the EC50 was < 1000 nM.
On to `N#Cc1ccc(-c2csc(Nc3ccc(OCCCC4CCCC4)c(C(F)(F)F)c3)n2)cn1` [compound 614], for which the EC50 is < 1000 nM.
As to `CCCCCOc1ccc(Nc2nc(-c3ccc(C#N)nc3)cs2)cc1F` [compound 615, 5-(2-(3-fluoro-4-(pentyloxy)phenylamino)thiazol-4-yl)pyridine-2-carbonitrile], the EC50 is < 1000 nM.
For `N#Cc1ccc(-c2csc(Nc3ccc(OC4CCCC4)c(C(F)(F)F)c3)n2)cn1` [compound 616, 5-(2-(4-(cyclopentyloxy)-3-(trifluoromethyl)phenylamino)thiazol-4-yl)pyridine-2-carbonitrile], the EC50 is < 1000 nM.
As for `CCCCCCCCOc1ccc(Nc2nc(-c3cncnc3)cs2)cc1C(F)(F)F` [compound 617, N-(3-(trifluoromethyl)-4-(octyloxy)phenyl)-4-(pyrimidin-5-yl)thiazol-2-amine], the EC50 was < 1000 nM.
`CCCCCOc1ccc(Nc2nc(-c3cncnc3)cs2)cc1F` [compound 618, N-(3-fluoro-4-(pentyloxy)phenyl)-4-(pyrimidin-5-yl)thiazol-2-amine]: the EC50 is < 1000 nM.
On to `CCCCCCCCOc1ccc(Nc2nc(-c3cnc(Cl)nc3)cs2)cc1` [compound 619, 4-(2-chloropyrimidin-5-yl)-N-(4-(octyloxy)phenyl)thiazol-2-amine], for which the EC50 was < 1000 nM.
Regarding `CCCCCCCCOc1ccc(Nc2nc(-c3cnc(Cl)nc3)cs2)cc1C(F)(F)F` [compound 620, 4-(2-chloropyrimidin-5-yl)-N-(3-(trifluoromethyl)-4-(octyloxy)phenyl)thiazol-2-amine], the EC50 is < 1000 nM.
To `FC(F)(F)c1cc(Nc2nc(-c3cncnc3)cs2)ccc1OC1CCCC1` [compound 621, N-(4-(cyclopentyloxy)-3-(trifluoromethyl)phenyl)-4-(pyrimidin-5-yl)thiazol-2-amine] belongs < 1000 nM; to `FC(F)(F)c1cc(Nc2nccs2)ccc1OCCCC1CCCC1` [compound 622, N-(4-(3-cyclopentylpropoxy)-3-(trifluoromethyl)phenyl)thiazol 2-amine], < 1000 nM.
`CCCCCCCCOc1ccc(Nc2nccs2)cc1` [compound 623, N-(4-(octyloxy)phenyl)thiazol-2-amine]: the EC50 was < 1000 nM.
As to `CCCCCCCCN(C)c1ccc(Nc2nccs2)cc1C(F)(F)F` [compound 624, 2-(trifluoromethyl)-N^1-methyl-N^1-octyl-N^4-(thiazol-2-yl)benzene-1,4-diamine], the EC50 is < 1000 nM.
For `CCCCCOc1ccc(Nc2nc(Cc3ccc(F)cc3)cs2)cc1C(F)(F)F` [compound 627, 4-(4-fluorobenzyl)-N-(3-(trifluoromethyl)-4-(pentyloxy)phenyl)thiazol-2-amine], the EC50 was < 1000 nM.
For the molecule `CCCCCCCCOc1ccc(Nc2nc(Cc3ccc(F)cc3)cs2)cc1` [compound 628, 4-(4-fluorobenzyl)-N-(4-(octyloxy)phenyl)thiazol-2-amine], the EC50 fell in the range of 1000 to 10000 nM.
`CCCCCCCCOc1ccc(Nc2nc(Cc3ccc(F)cc3)cs2)cc1C(F)(F)F` [compound 629, 4-(4-fluorobenzyl)-N-(3-(trifluoromethyl)-4-(octyloxy)phenyl)thiazol-2-amine]: the EC50 was < 1000 nM.
